Data set [1] in a line: Solubility determination. The settings on record: for Sol6: pH 6; for Sol7: pH 7. In short, it runs like this: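 First, TFA-salt peptide was added to 0.1 M sodium diphosphate (pH 6.4 or 7.0) to 10 mg/ml and shaken 2 h at room temperature. Next, insoluble material was filtered off. Finally, filtrate and control, each 1 mg/ml in 50% acetonitrile, were compared by reversed-phase chromatography.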

In data set [2] the target is T1, Human Neuropeptide Y2 Receptor (Homo sapiens, UniProt P49146).
T1 construct: purchased CHEMICON HTS066M
T1 sequence (P49146 1-381): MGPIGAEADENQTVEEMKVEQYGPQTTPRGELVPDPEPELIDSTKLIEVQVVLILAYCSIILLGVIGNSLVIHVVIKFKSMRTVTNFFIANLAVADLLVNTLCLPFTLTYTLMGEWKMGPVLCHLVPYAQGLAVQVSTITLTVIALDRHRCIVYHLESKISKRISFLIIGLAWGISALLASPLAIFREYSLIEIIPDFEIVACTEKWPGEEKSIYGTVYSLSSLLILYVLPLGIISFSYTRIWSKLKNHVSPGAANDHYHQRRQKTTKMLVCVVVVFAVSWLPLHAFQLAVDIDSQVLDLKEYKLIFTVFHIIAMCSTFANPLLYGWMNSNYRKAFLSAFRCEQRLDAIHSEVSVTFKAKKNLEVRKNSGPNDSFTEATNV
Put plainly: Radioligand binding competition assay (RLB). The settings on record: Table 3, 125I-PYY(1-36) competition; read-out: Ki. The procedure, abridged: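 Filtration competition binding on membranes from cells expressing the receptor, 0.5 μg protein/well, in 50 mM HEPES, 5 mM MgCl2, 1 mM CaCl2, pH 7.4, with 0.2% ovalbumin. Incubation ran 2 h at room temperature, followed by GF/C filtration and scintillation counting. IC50 came from nonlinear sigmoidal fits.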

For the compound `CC(C)CC(=O)N[C@@H](C)C(=O)N1CCC[C@H]1C(=O)N[C@@H](CCC(=O)O)C(=O)N[C@@H](CCCCNC(=O)CCCCCNC(=O)CC[C@H](NC(=O)CCCCCCCCCCCCCCCCC(=O)O)C(=O)O)C(=O)N1CCC[C@H]1C(=O)N[C@@H](CCC(=O)O)C(=O)N[C@@H](CCC(=O)O)C(=O)N[C@@H](CC(=O)O)C(=O)N[C@@H](C)C(=O)N[C@H](C(=O)N1CCC[C@H]1C(=O)N[C@@H](CCC(=O)O)C(=O)N[C@@H](CCC(=O)O)C(=O)N[C@@H](CC(C)C)C(=O)N[C@@H](CCC(N)=O)C(=O)N[C@@H](CCCNC(=N)N)C(=O)N[C@@H](Cc1ccc(O)cc1)C(=O)N[C@@H](Cc1ccc(O)cc1)C(=O)N[C@H](C(=O)N1CCC[C@H]1C(=O)N[C@@H](CC(C)C)C(=O)N[C@@H](CCCNC(=N)N)C(=O)N[C@@H](Cc1c[nH]cn1)C(=O)N[C@@H](Cc1ccc(O)cc1)C(=O)N[C@@H](Cc1ccc(O)cc1)C(=O)N[C@@H](CC(N)=O)C(=O)N[C@@H](Cc1c[nH]c2ccccc12)C(=O)N[C@@H](CC(C)C)C(=O)N[C@H](C(=O)N[C@@H](CCCNC(=N)N)C(=O)N[C@@H](CCC(N)=O)C(=O)N[C@@H](CCCNC(=N)N)C(=O)N[C@@H](Cc1ccc(O)cc1)C(N)=O)[C@@H](C)O)C(C)C)[C@@H](C)O` [Compound 87, N{alpha-4}-(3-methylbutanoyl)-N{epsilon-7}-(6-[(4S)-4-carboxy-4-(17-carboxyheptadecanamido)butanamido]hexanoyl)-[4A,7K,9E,13T,18Q,22V,23P,28Y,30W,31L]-hPYY(4-36)], in data set [1], the “Sol6” value amounted to 9.7 mg/mL and the “Sol7” value is 9.7 mg/mL. Moreover, in data set [2], the inhibition constant (Ki) came to 22.4 nM.

In the case of `CC(C)CC(=O)N[C@@H](C)C(=O)N1CCC[C@H]1C(=O)N[C@@H](CCC(=O)O)C(=O)N[C@@H](CCCCNC(=O)CCCCCNC(=O)CC[C@H](NC(=O)CCCCCCCCCCCCCCCCC(=O)O)C(=O)O)C(=O)N1CCC[C@H]1C(=O)N[C@@H](CCC(=O)O)C(=O)N[C@@H](CCC(=O)O)C(=O)N[C@@H](CC(=O)O)C(=O)N[C@@H](C)C(=O)N[C@H](C(=O)N1CCC[C@H]1C(=O)N[C@@H](CCC(=O)O)C(=O)N[C@@H](CCC(=O)O)C(=O)N[C@@H](CC(C)C)C(=O)N[C@@H](CCC(N)=O)C(=O)N[C@@H](CCCNC(=N)N)C(=O)N[C@@H](CCC(N)=O)C(=O)N[C@@H](Cc1ccc(O)cc1)C(=O)N[C@H](C(=O)N[C@@H](CO)C(=O)N[C@@H](CC(C)C)C(=O)N[C@@H](CCCNC(=N)N)C(=O)N[C@@H](Cc1c[nH]cn1)C(=O)N[C@@H](Cc1ccc(O)cc1)C(=O)N[C@@H](Cc1ccc(O)cc1)C(=O)N[C@@H](CC(N)=O)C(=O)N[C@@H](Cc1c[nH]c2ccccc12)C(=O)N[C@@H](CC(C)C)C(=O)N[C@H](C(=O)N[C@@H](CCCNC(=N)N)C(=O)N[C@@H](CCC(N)=O)C(=O)N[C@@H](CCCNC(=N)N)C(=O)N[C@@H](Cc1ccc(O)cc1)C(N)=O)[C@@H](C)O)C(C)C)[C@@H](C)O` [Compound 88, N{alpha-4}-(3-methylbutanoyl)-N{epsilon-7}-(6-[(4S)-4-carboxy-4-(17-carboxyheptadecanamido)butanamido]hexanoyl)-[4A,7K,9E,13T,18Q,20Q,22V,28Y,30W,31L]-hPYY(4-36)], in data set [1], the “Sol6” value is 8.7 mg/mL and the “Sol7” value turned out to be 8.9 mg/mL. Besides, the Ki in data set [2] was found to be 16.3 nM.

For the compound `CC(C)CC(=O)N[C@@H](C)C(=O)N1CCC[C@H]1C(=O)N[C@@H](CCC(=O)O)C(=O)N[C@@H](CCCCNC(=O)CCCCCNC(=O)CC[C@H](NC(=O)CCCCCCCCCCCCCCCCC(=O)O)C(=O)O)C(=O)N1CCC[C@H]1C(=O)N[C@@H](CCC(=O)O)C(=O)N[C@@H](CCC(=O)O)C(=O)N[C@@H](CC(=O)O)C(=O)N[C@@H](C)C(=O)N[C@H](C(=O)N1CCC[C@H]1C(=O)N[C@@H](CCC(=O)O)C(=O)N[C@@H](CCC(=O)O)C(=O)N[C@@H](CC(C)C)C(=O)N[C@@H](CCC(N)=O)C(=O)N[C@@H](CCCNC(=N)N)C(=O)N[C@@H](Cc1ccc(O)cc1)C(=O)N[C@@H](Cc1ccc(O)cc1)C(=O)N[C@H](C(=O)N[C@H](C(=O)N[C@@H](CC(C)C)C(=O)N[C@@H](CCCNC(=N)N)C(=O)N[C@@H](Cc1c[nH]cn1)C(=O)N[C@@H](Cc1ccc(O)cc1)C(=O)N[C@@H](Cc1ccc(O)cc1)C(=O)N[C@@H](CC(N)=O)C(=O)N[C@@H](Cc1c[nH]c2ccccc12)C(=O)N[C@@H](CC(C)C)C(=O)N[C@H](C(=O)N[C@@H](CCCNC(=N)N)C(=O)N[C@@H](CCC(N)=O)C(=O)N[C@@H](CCCNC(=N)N)C(=O)N[C@@H](Cc1ccc(O)cc1)C(N)=O)[C@@H](C)O)C(C)C)C(C)C)[C@@H](C)O` [Compound 90, N{alpha-4}-(3-methylbutanoyl)-N{epsilon-7}-(6-[(4S)-4-carboxy-4-(17-carboxyheptadecanamido)butanamido]hexanoyl)-[4A,7K,9E,13T,18Q,22V,23V,28Y,30W,31L]-hPYY(4-36)], in data set [1], the “Sol6” value came to 9.6 mg/mL and the “Sol7” value is 10.0 mg/mL. In data set [2], the inhibitory constant (Ki) was determined as 8.71 nM.

On to `CC[C@H](C)[C@H](NC(=O)[C@H](CCC(=O)O)NC(=O)[C@H](CCC(=O)O)NC(=O)[C@@H]1CCCN1C(=O)[C@H](CO)NC(=O)[C@H](C)NC(=O)[C@H](CC(=O)O)NC(=O)[C@H](CCC(=O)O)NC(=O)[C@H](CCC(=O)O)NC(=O)[C@@H]1CCCN1C(=O)[C@H](CCCCNC(=O)CCCCCNC(=O)CC[C@H](NC(=O)CCCCCCCCCCCCCCCCC(=O)O)C(=O)O)NC(=O)[C@H](CCC(=O)O)NC(=O)[C@@H]1CCCN1C(=O)[C@H](C)NC(=O)CC(C)C)C(=O)N[C@@H](CCC(N)=O)C(=O)N[C@@H](CCCNC(=N)N)C(=O)N[C@@H](Cc1ccc(O)cc1)C(=O)N[C@@H](Cc1ccc(O)cc1)C(=O)N[C@H](C(=O)N[C@@H](CCC(N)=O)C(=O)N[C@@H](CC(C)C)C(=O)N[C@@H](CCCNC(=N)N)C(=O)N[C@@H](Cc1c[nH]cn1)C(=O)N[C@@H](Cc1ccc(O)cc1)C(=O)N[C@@H](Cc1ccc(O)cc1)C(=O)N[C@@H](CC(N)=O)C(=O)N[C@@H](Cc1c[nH]c2ccccc12)C(=O)N[C@@H](CC(C)C)C(=O)N[C@H](C(=O)N[C@@H](CCCNC(=N)N)C(=O)N[C@@H](CCC(N)=O)C(=O)N[C@@H](CCCNC(=N)N)C(=O)N[C@@H](Cc1ccc(O)cc1)C(N)=O)[C@@H](C)O)C(C)C` [Compound 93, N{alpha-4}-(3-methylbutanoyl)-N{epsilon-7}-(6-[(4S)-4-carboxy-4-(17-carboxyheptadecanamido)butanamido]hexanoyl)-[4A,7K,9E,17I,18Q,22V,23Q,28Y,30W,31L]-hPYY(4-36)], for which, in data set [1], the “Sol6” value was 9.4 mg/mL and the “Sol7” value was determined as 9.7 mg/mL. Further, the inhibitory constant (Ki) in data set [2] was found to be 1.71 nM.

On to `CC(C)CC(=O)N[C@@H](C)C(=O)N1CCC[C@H]1C(=O)N[C@@H](C)C(=O)N[C@@H](CCCCNC(=O)CCCCCNC(=O)CC[C@H](NC(=O)CCCCCCCCCCCCCCCCC(=O)O)C(=O)O)C(=O)N1CCC[C@H]1C(=O)N[C@@H](CCC(=O)O)C(=O)N[C@@H](C)C(=O)N[C@@H](CC(=O)O)C(=O)N[C@@H](C)C(=O)N[C@@H](CO)C(=O)N1CCC[C@H]1C(=O)N[C@@H](CCC(=O)O)C(=O)N[C@@H](CCC(=O)O)C(=O)N[C@@H](CC(C)C)C(=O)N[C@@H](CCC(N)=O)C(=O)N[C@@H](CCCNC(=N)N)C(=O)N[C@@H](Cc1ccc(O)cc1)C(=O)N[C@@H](Cc1ccc(O)cc1)C(=O)N[C@H](C(=O)N[C@@H](CCC(=O)O)C(=O)N[C@@H](CC(C)C)C(=O)N[C@@H](CCCNC(=N)N)C(=O)N[C@@H](Cc1c[nH]cn1)C(=O)N[C@@H](Cc1ccc(O)cc1)C(=O)N[C@@H](Cc1ccc(O)cc1)C(=O)N[C@@H](CC(N)=O)C(=O)N[C@@H](Cc1c[nH]c2ccccc12)C(=O)N[C@@H](CC(C)C)C(=O)N[C@H](C(=O)N[C@@H](CCCNC(=N)N)C(=O)N[C@@H](CCC(N)=O)C(=O)N[C@@H](CCCNC(=N)N)C(=O)N[C@@H](Cc1ccc(O)cc1)C(N)=O)[C@@H](C)O)C(C)C` [Compound 94, N{alpha-4}-(3-methylbutanoyl)-N{epsilon-7}-(6-[(4S)-4-carboxy-4-(17-carboxyheptadecanamido)butanamido]hexanoyl)-[4A,6A,7K,9E,10A,18Q,22V,23E,28Y,30W,31L]-hPYY(4-36)], for which, in data set [1], the “Sol6” value turned out to be 8.4 mg/mL and the “Sol7” value is 8.9 mg/mL. Moreover, in data set [2], the inhibition constant Ki is 0.93 nM.

For orientation: Ki means the equilibrium dissociation constant of an inhibitor or competing ligand from its target.

For the origin of these results see patent US12391737B2, “Soluble NPY2 receptor agonists” (Boehringer Ingelheim International GmbH, priority 2020, dated 2025).
